Experimental data taken from patent US20220411750A1, “CELL STRUCTURE, PRODUCTION METHOD THEREOF, AND METHOD FOR EVALUATING HEPATOTOXICITY OF SUBSTANCE TO BE TESTED” (TOPPAN INC., priority 2019, published 2022).
pIC50: −log10 of the molar value.

Tested on: cell structure having a liver sinusoidal network produced using CMF (Example A)
Assay: not given
Conditions: human

MOS value [IC50/Cmax] Example A	Structure (SMILES)
2.5	C1CCC(C(CC2CCCCN2)C2CCCCC2)CC1 (stereo not drawn) [Perhexiline]

Tested on: two-dimensional primary human hepatocytes (2D PHH)
Assay: not given
Conditions: literature data, "Outside" = Outside measurement range; cited from earlier work

Structure (SMILES)	MOS value [IC50/Cmax] Reference Example A
COc1ccccc1Oc1c(NS(=O)(=O)c2ccc(C(C)(C)C)cc2)nc(-c2ncccn2)nc1OCCO [Bosentan]	Outside
O=P1(N(CCCl)CCCl)NCCCO1 (stereo not drawn) [Cyclophosphamide]	Outside
CCOC(=O)c1ncn2c1CN(C)C(=O)c1cc(F)ccc1-2 [Flumazenil]	Outside
C[C@H]1COc2c(N3CCN(C)CC3)c(F)cc3c(=O)c(C(=O)O)cn1c23 [Levofloxacin]	Outside
CN(CCOc1ccc(CC2SC(=O)NC2=O)cc1)c1ccccn1 (stereo not drawn) [Rosiglitazone]	Outside

Tested on: cell structure having a liver sinusoidal network produced using heparin and a collagen solution (Example B)
Assay: not given
Conditions: human

MOS value [IC50/Cmax] Example B	Structure (SMILES)
1.5	C1CCC(C(CC2CCCCN2)C2CCCCC2)CC1 (stereo not drawn) [Perhexiline]

Tested on: cell structure having a liver sinusoidal network produced using CMF (Example A)
Assay: Toxicity evaluation by ATP assay, cell structure of Example A (produced using CMF)
Conditions: ATP assay IC50 divided by Cmax; cell structure produced using CMF; "Outside" = Outside measurement range

Structure (SMILES)	MOS value [IC50/Cmax] Example A
CCOC(=O)c1ncn2c1CN(C)C(=O)c1cc(F)ccc1-2 [Flumazenil]	Outside
C[C@H]1COc2c(N3CCN(C)CC3)c(F)cc3c(=O)c(C(=O)O)cn1c23 [Levofloxacin]	Outside

Same assay, conditions: ATP assay, cell structure produced using CMF; drug medium from day 7, replaced day 10, assay after 14 days; "Outside" = Outside measurement range

Structure (SMILES)	IC50 Example A
CCOC(=O)c1ncn2c1CN(C)C(=O)c1cc(F)ccc1-2 [Flumazenil]	Outside
Nc1cc(N2CCCCC2)nc(N)[n+]1[O-] [Minoxidil0]	Outside
CN(C)C(=O)Oc1ccc[n+](C)c1 [Pyridostigmine]	Outside

Same assay, conditions: Homo sapiens, read-out: IC50 Example A

Structure (SMILES)	pIC50
CC(=O)Nc1ccc(O)cc1 [Acetaminophen]	3.12
COc1ccccc1Oc1c(NS(=O)(=O)c2ccc(C(C)(C)C)cc2)nc(-c2ncccn2)nc1OCCO [Bosentan]	4.17
O=P1(N(CCCl)CCCl)NCCCO1 (stereo not drawn) [Cyclophosphamide]	2.78
O=C(O)Cc1ccccc1Nc1c(Cl)cccc1Cl [Diclofenac]	4.19
Cc1onc(-c2c(F)cccc2Cl)c1C(=O)N[C@@H]1C(=O)N2[C@@H]1SC(C)(C)[C@@H]2C(=O)O [Flucloxacillin]	2.86
CCc1nn(CCCN2CCN(c3cccc(Cl)c3)CC2)c(=O)n1CCOc1ccccc1 [Nefazodone]	4.66
C1CCC(C(CC2CCCCN2)C2CCCCC2)CC1 (stereo not drawn) [Perhexiline]	5.27
Cc1ccc(N(CC2=NCCN2)c2cccc(O)c2)cc1 [Phentolamine]	3.75
CN(CCOc1ccc(CC2SC(=O)NC2=O)cc1)c1ccccn1 (stereo not drawn) [Rosiglitazone]	4.33
Cc1ccc(C(=O)c2cc(O)c(O)c([N+](=O)[O-])c2)cc1 [Tolcapone]	4.49
Cc1c(C)c2c(c(C)c1O)CCC(C)(COc1ccc(CC3SC(=O)NC3=O)cc1)O2 (stereo not drawn) [Troglitazone]	4.77

Tested on: liver sinusoidal network of liver model (PXB cells, SEC, LX2)
Assay: Monocrotaline administration experiment, CD31 immunostaining of liver model
Format: cell-based, human
Conditions: monocrotaline 2,000, 666, 222 or 74 μM on Day 1 and Day 4; observed Day 7; 1% DMSO
Experimental: 1 day (Day 1) and 4 days (Day 4) after the start of the culture of the liver model, administration was performed on the liver model by replacing the medium with a medium containing monocrotaline at a concentration of 2,000 μM, 666 μM, 222 μM, or 74 μM. Here, the compound used was dissolved in advance in DMSO at a high concentration and stored, and during administration, DMSO was contained at a concentration of 1% in the medium. Since 1% DMSO was contained in each administration condition, replacement of the medium with a medium containing only 1% DMSO was performed at the same time, and the result was used as a negative control.
For the samples on which administration was performed, a fixing treatment, a permeation treatment, blocking, a primary antibody treatment, a secondary antibody treatment, imaging and area calculation and evaluation were performed in that order. Hereinafter, the procedure from the fixing treatment to evaluation will be described. […]
The intensities of the images captured by the above method were added up to obtain a fluorescence observation image of each liver model.

Structure (SMILES)	Fragmentation of liver sinusoidal network (CD31 immunostaining)
C[C@H]1C(=O)O[C@@H]2CCN3CC=C(COC(=O)[C@](C)(O)[C@]1(C)O)[C@H]23 [monocrotaline]	liver sinusoidal network became fragmented as the monocrotaline concentration increased

Tested on: not given
Assay: not given
Conditions: maximum drug concentration used for MOS value; cited from earlier work

Structure (SMILES)	Cmax [µM]
CC(=O)Nc1ccc(O)cc1 [Acetaminophen]	165
COc1ccccc1Oc1c(NS(=O)(=O)c2ccc(C(C)(C)C)cc2)nc(-c2ncccn2)nc1OCCO [Bosentan]	7.43
O=P1(N(CCCl)CCCl)NCCCO1 (stereo not drawn) [Cyclophosphamide]	143
O=C(O)Cc1ccccc1Nc1c(Cl)cccc1Cl [Diclofenac]	10.1
Cc1onc(-c2c(F)cccc2Cl)c1C(=O)N[C@@H]1C(=O)N2[C@@H]1SC(C)(C)[C@@H]2C(=O)O [Flucloxacillin]	66.1
CCOC(=O)c1ncn2c1CN(C)C(=O)c1cc(F)ccc1-2 [Flumazenil]	1.12
C[C@H]1COc2c(N3CCN(C)CC3)c(F)cc3c(=O)c(C(=O)O)cn1c23 [Levofloxacin]	15.8
Nc1cc(N2CCCCC2)nc(N)[n+]1[O-] [Minoxidil0]	1.19
CCc1nn(CCCN2CCN(c3cccc(Cl)c3)CC2)c(=O)n1CCOc1ccccc1 [Nefazodone]	4.26
Cc1ccc(N(CC2=NCCN2)c2cccc(O)c2)cc1 [Phentolamine]	0.09
CN(C)C(=O)Oc1ccc[n+](C)c1 [Pyridostigmine]	1.1
CN(CCOc1ccc(CC2SC(=O)NC2=O)cc1)c1ccccn1 (stereo not drawn) [Rosiglitazone]	1.04
Cc1ccc(C(=O)c2cc(O)c(O)c([N+](=O)[O-])c2)cc1 [Tolcapone]	47.6
CCOC(=O)CN[C@@H](C(=O)N1CC[C@H]1C(=O)NCc1ccc(/C(N)=N\O)cc1)C1CCCCC1 [Ximelagatran]	0.45

Tested on: cell structure having a liver sinusoidal network produced using heparin and a collagen solution (Example B)
Assay: Toxicity evaluation by ATP assay, cell structure of Example B (produced using heparin and a collagen solution)
Conditions: ATP assay IC50 divided by Cmax; cell structure produced using heparin and collagen; "Outside" = Outside measurement range

Structure (SMILES)	MOS value [IC50/Cmax] Example B
CCOC(=O)c1ncn2c1CN(C)C(=O)c1cc(F)ccc1-2 [Flumazenil]	Outside

Same assay, conditions: ATP assay, cell structure produced using heparin and collagen solution; "Outside" = Outside measurement range

Structure (SMILES)	IC50 Example B
CCOC(=O)c1ncn2c1CN(C)C(=O)c1cc(F)ccc1-2 [Flumazenil]	Outside
Nc1cc(N2CCCCC2)nc(N)[n+]1[O-] [Minoxidil0]	Outside
CN(C)C(=O)Oc1ccc[n+](C)c1 [Pyridostigmine]	Outside

Same assay, conditions: Homo sapiens, read-out: IC50 Example B

Structure (SMILES)	pIC50
CC(=O)Nc1ccc(O)cc1 [Acetaminophen]	3.06
COc1ccccc1Oc1c(NS(=O)(=O)c2ccc(C(C)(C)C)cc2)nc(-c2ncccn2)nc1OCCO [Bosentan]	3.68
O=P1(N(CCCl)CCCl)NCCCO1 (stereo not drawn) [Cyclophosphamide]	2.87
O=C(O)Cc1ccccc1Nc1c(Cl)cccc1Cl [Diclofenac]	3.64
Cc1onc(-c2c(F)cccc2Cl)c1C(=O)N[C@@H]1C(=O)N2[C@@H]1SC(C)(C)[C@@H]2C(=O)O [Flucloxacillin]	2.24
C[C@H]1COc2c(N3CCN(C)CC3)c(F)cc3c(=O)c(C(=O)O)cn1c23 [Levofloxacin]	3.02
CCc1nn(CCCN2CCN(c3cccc(Cl)c3)CC2)c(=O)n1CCOc1ccccc1 [Nefazodone]	4.49
C1CCC(C(CC2CCCCN2)C2CCCCC2)CC1 (stereo not drawn) [Perhexiline]	5.49
Cc1ccc(N(CC2=NCCN2)c2cccc(O)c2)cc1 [Phentolamine]	4.18
CN(CCOc1ccc(CC2SC(=O)NC2=O)cc1)c1ccccn1 (stereo not drawn) [Rosiglitazone]	4.10
Cc1ccc(C(=O)c2cc(O)c(O)c([N+](=O)[O-])c2)cc1 [Tolcapone]	4.05
Cc1c(C)c2c(c(C)c1O)CCC(C)(COc1ccc(CC3SC(=O)NC3=O)cc1)O2 (stereo not drawn) [Troglitazone]	4.30

Tested on: 3D human liver microtissues (3D hLiMT)
Assay: not given
Conditions: literature data, "Outside" = Outside measurement range; cited from earlier work

Structure (SMILES)	MOS value [IC50/Cmax] Reference Example B
O=P1(N(CCCl)CCCl)NCCCO1 (stereo not drawn) [Cyclophosphamide]	Outside
CCOC(=O)c1ncn2c1CN(C)C(=O)c1cc(F)ccc1-2 [Flumazenil]	Outside
C[C@H]1COc2c(N3CCN(C)CC3)c(F)cc3c(=O)c(C(=O)O)cn1c23 [Levofloxacin]	Outside

Tested on: not given
Assay: not given
Conditions: Yes/No; Yes for No. 1-14, No for No. 15-18; cited from earlier work

Structure (SMILES)	Toxicity
CC(=O)Nc1ccc(O)cc1 [Acetaminophen]	Yes
COc1ccccc1Oc1c(NS(=O)(=O)c2ccc(C(C)(C)C)cc2)nc(-c2ncccn2)nc1OCCO [Bosentan]	Yes
O=P1(N(CCCl)CCCl)NCCCO1 (stereo not drawn) [Cyclophosphamide]	Yes
Cc1onc(-c2c(F)cccc2Cl)c1C(=O)N[C@@H]1C(=O)N2[C@@H]1SC(C)(C)[C@@H]2C(=O)O [Flucloxacillin]	Yes
CCOC(=O)c1ncn2c1CN(C)C(=O)c1cc(F)ccc1-2 [Flumazenil]	No
C[C@H]1COc2c(N3CCN(C)CC3)c(F)cc3c(=O)c(C(=O)O)cn1c23 [Levofloxacin]	Yes
CCc1nn(CCCN2CCN(c3cccc(Cl)c3)CC2)c(=O)n1CCOc1ccccc1 [Nefazodone]	Yes
C1CCC(C(CC2CCCCN2)C2CCCCC2)CC1 (stereo not drawn) [Perhexiline]	Yes
Cc1ccc(N(CC2=NCCN2)c2cccc(O)c2)cc1 [Phentolamine]	No
CN(C)C(=O)Oc1ccc[n+](C)c1 [Pyridostigmine]	No
CN(CCOc1ccc(CC2SC(=O)NC2=O)cc1)c1ccccn1 (stereo not drawn) [Rosiglitazone]	Yes
Cc1ccc(C(=O)c2cc(O)c(O)c([N+](=O)[O-])c2)cc1 [Tolcapone]	Yes
Cc1c(C)c2c(c(C)c1O)CCC(C)(COc1ccc(CC3SC(=O)NC3=O)cc1)O2 (stereo not drawn) [Troglitazone]	Yes
CCOC(=O)CN[C@@H](C(=O)N1CC[C@H]1C(=O)NCc1ccc(/C(N)=N\O)cc1)C1CCCCC1 [Ximelagatran]	Yes

Same assay, conditions: drug-induced liver injury severity category; cited from earlier work

Structure (SMILES)	DILI severity category (LKBT)
CCOC(=O)c1ncn2c1CN(C)C(=O)c1cc(F)ccc1-2 [Flumazenil]	I
